The target of one test is TEAD1 in SK-HEP1 cells (Homo sapiens (Human), UniProt P28347). In words: TEAD degradation in SK-HEP1 cell line (immunofluorescence). Type of test: cell-based. As for the experimental part: (§1) Degradation of TEAD isoform TEAD1 by exemplary compounds which has been determined at different time points in two different cell lines, SK-HEP1 and NCI-H226: For the assay, SK-HEP1 (ATCC HTB-52) and NCI-H226 (ATCC CRL-5826) cells were treated in duplicates with the test compounds in a 10-point dose, 1:3 dilution steps, with the top concentration starting at 30 uM (final concentration in assay). After either 16 or 24 hour incubation at 37° C., 95% rH, and 5% CO2, the cells were fixed with 4% PFA and TEAD1 levels were probed using immunofluorescence. The primary antibody used was Anti-TEF1 (BD, 610293) and the secondary antibody used was Alexa Fluor® 488 Goat Anti-Mouse IgG (H+L) (Molecular Probes, A-11001). Finally, the cell nuclei were co-stained by Hoechst 33258 (Invitrogen, H-3569) and imaged using a high content imager. The amount of TEAD degradation was determined by quantifying the fluorescence intensity levels of Anti-TEF1 in each individual cell per well. DC50 was calculated using curve fitting software Genedata Screener. Cell media: The SK-HEP1 cells were cultured in the following media: MEM, +10% FCS, +1× GlutaMAX, +100 μM NEAA, +10 mM HEPES, +0.5% Pen/Strep. The NCI-H226 cells were cultured in the following media: RPMI 1640, +10% FBS, +1× GlutaMAX, +10 mM HEPES, +0.5% Pen/Strep.
Chain of TEAD1 in SK-HEP1 cells (P28347 whole entry, canonical isoform): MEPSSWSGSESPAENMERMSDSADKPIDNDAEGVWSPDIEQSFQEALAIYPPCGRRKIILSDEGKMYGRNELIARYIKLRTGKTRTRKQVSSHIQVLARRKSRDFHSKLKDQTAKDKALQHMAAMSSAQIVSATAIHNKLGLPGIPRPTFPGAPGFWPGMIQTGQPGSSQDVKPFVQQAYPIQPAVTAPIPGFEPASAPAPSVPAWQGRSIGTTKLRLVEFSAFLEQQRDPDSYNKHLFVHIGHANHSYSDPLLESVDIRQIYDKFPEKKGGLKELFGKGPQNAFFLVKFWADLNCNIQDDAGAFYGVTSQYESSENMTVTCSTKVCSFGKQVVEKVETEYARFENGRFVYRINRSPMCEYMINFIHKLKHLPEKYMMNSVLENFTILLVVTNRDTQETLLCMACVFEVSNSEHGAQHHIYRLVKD

The target of a further test is TEAD1 in NCI-H226 cells (Homo sapiens (Human), UniProt P28347). In words: TEAD degradation in NCI-H226 cell line (immunofluorescence). Type of test: cell-based. How it is done:
as §1

[1] abbreviates: 24 hours, ranges, read-out: DC50 SK-HEP1.
Setting [2] is: 24 hours, ranges, read-out: DC50 NCI-H226.

Like-named read-outs stand apart in the source and are kept apart here. Some results are limits rather than exact numbers.

Chain of TEAD1 in NCI-H226 cells (P28347 whole entry): as the sequence (P28347 whole entry, canonical isoform) above

Take `Cn1nc2c3cc(C(=O)NCCOCCOCCOCCOCCNc4cccc5c4C(=O)N(C4CCC(=O)NC4=O)C5=O)ccc3n([C@H]3CC[C@H](C(F)(F)F)CC3)c2n1` (some centres unmarked) [Compound 95, N-(14-{[2-(2,6-dioxopiperidin-3-yl)-1,3-dioxo-2,3-dihydro-1H-isoindol-4-yl]amino}-3,6,9,12-tetraoxatetradecan-1-yl)-2-methyl-4-[(1r,4r)-4-(trifluoromethyl)cyclohexyl]-2H,4H-[1,2,3]triazolo[4,5-b]indole-7-carboxamide]: the DC50 on TEAD1 in SK-HEP1 cells (setting [1]) and on TEAD1 in NCI-H226 cells (setting [2]) was 0.1 to 1 µM in each case.
On to `Cc1ncsc1-c1ccc(CNC(=O)[C@@H]2C[C@@H](O)CN2C(=O)[C@@H](NC(=O)CCCCCc2cnnn2CCCCCCCNC(=O)c2ccc3c(c2)c2cn(C)nc2n3-c2ccc(C(F)(F)F)cc2)C(C)(C)C)cc1` [Compound 37, (2S,4R)-1-[(2S)-3,3-dimethyl-2-(6-{1-[7-({2-methyl-8-[4-(trifluoromethyl)-phenyl]-2H,8H-pyrazolo[3,4-b]indol-5-yl}formamido)heptyl]-1H-1,2,3-triazol-5-yl}hexanamido)butanoyl]-4-hydroxy-N-{[4-(4-methyl-1,3-thiazol-5-yl)phenyl]methyl}pyrrolidine-2-carboxamide], for which the DC50 at TEAD1 in SK-HEP1 cells (setting [1]) and at TEAD1 in NCI-H226 cells (setting [2]) was 0.1 to 1 µM in each case.
Take `Cc1ncsc1-c1ccc(CNC(=O)[C@@H]2C[C@@H](O)CN2C(=O)[C@@H](NC(=O)CCCCCC(=O)N(C)CCOCCOCCNC(=O)c2ccc3c(c2)c2cn(C)nc2n3-c2ccc(C(F)(F)F)cc2)C(C)(C)C)cc1` [Compound 53, N-[(2S)-1-[(2S,4R)-4-hydroxy-2-({[4-(4-methyl-1,3-thiazol-5-yl)phenyl]-methyl}carbamoyl)pyrrolidin-1-yl]-3,3-dimethyl-1-oxobutan-2-yl]-N′-methyl-N′-(2-{2-[2-({2-methyl-8-[4-(trifluoromethyl)phenyl]-2H,8H-pyrazolo[3,4-b]indol-5-yl}formamido)ethoxy]ethoxy}ethyl) heptanediamide]: the half-maximal degradation concentration (DC50) on TEAD1 in SK-HEP1 cells (setting [1]) and on TEAD1 in NCI-H226 cells (setting [2]) was 0.1 to 1 µM throughout.
As to `Cn1cc2c3cc(C(=O)NCCOCCOCCOCCOCCOc4cccc5c4C(=O)N(C4CCC(=O)NC4=O)C5=O)ccc3n(-c3ccc(C(F)(F)F)cc3)c2n1` (centres unmarked) [Compound 16, N-(14-{[2-(2,6-dioxopiperidin-3-yl)-1,3-dioxo-2,3-dihydro-1H-isoindol-4-yl]oxy}-3,6,9,12-tetraoxatetradecan-1-yl)-2-methyl-8-[4-(trifluoromethyl)phenyl]-2H,8H-pyrazolo[3,4-b]indole-5-carboxamide], the half-maximal degradation concentration (DC50) (in general, the concentration at which degradation of the target reaches its halfway point) at TEAD1 in SK-HEP1 cells (24 h incubation, read-out: DC50 SK-HEP1 24 h) is 0.25 µM; on TEAD1 in SK-HEP1 cells (setting [1]) it was 0.1 to 1 µM; on TEAD1 in NCI-H226 cells (24 h incubation, read-out: DC50 NCI-H226 24 h), 0.6 µM; on TEAD1 in NCI-H226 cells (setting [2]), 0.1 to 1 µM.
For `Cc1ncsc1-c1ccc(CNC(=O)[C@@H]2C[C@@H](O)CN2C(=O)[C@@H](NC(=O)COCCOCCOCCNC(=O)c2ccc3c(c2)c2cn(C)nc2n3-c2ccc(C(F)(F)F)cc2)C(C)(C)C)cc1` [Compound 52], the DC50 at TEAD1 in SK-HEP1 cells (setting [1]) and at TEAD1 in NCI-H226 cells (setting [2]) was 0.1 to 1 µM each time.
Regarding `Cn1nc2c3cc(C(=O)NCCOCCOCCOCCOCCNc4cccc5c4C(=O)N(C4CCC(=O)NC4=O)C5=O)ccc3n(-c3ccc(C(F)(F)F)cc3)c2n1` (centres unmarked) [Compound 45, N-(14-{[2-(2,6-dioxopiperidin-3-yl)-1,3-dioxo-2,3-dihydro-1H-isoindol-4-yl]amino}-3,6,9,12-tetraoxatetradecan-1-yl)-2-methyl-4-[4-(trifluoromethyl)phenyl]-2H,4H-[1,2,3]triazolo[4,5-b]indole-7-carboxamide], the figures for the half-maximal degradation concentration (DC50) at TEAD1 in SK-HEP1 cells (setting [1]) and on TEAD1 in NCI-H226 cells (setting [2]) were 0.1 to 1 µM and under 0.1 µM, respectively.
On the same counts, the results for `CCNC(=O)[C@H](Cc1ccc(F)cc1)NC(=O)[C@@H]1CCCN1C(=O)[C@@H](NC(=O)[C@H](C)NCCOCCOCCOCCNC(=O)c1ccc2c(c1)c1cn(C)nc1n2-c1ccc(C(F)(F)F)cc1)C1CCCCC1` (stereo in doubt) [Compound 69, (13S)—N-[(1S)-1-cyclohexyl-2-[(2S)-2-{[(1S)-1-(ethylcarbamoyl)-2-(4-fluorophenyl)ethyl]carbamoyl}pyrrolidin-1-yl]-2-oxoethyl]-13-methyl-1-({2-methyl-8-[4-(trifluoromethyl)phenyl]-2H,8H-pyrazolo[3,4-b]indol-5-yl}form-amido)-3,6,9-trioxa-12-azatetradecan-14-amide] are 3 to 9 µM and 9 to 30 µM.
In the case of `Cc1ccc2c(c1)c1cc(C(=O)NCCOCCOCCOCCOCCNc3cccc4c3C(=O)N(C3CCC(=O)NC3=O)C4=O)ccc1n2-c1ccc(C(F)(F)F)cc1` (centres unmarked) [Compound 46, N-(14-{[2-(2,6-dioxopiperidin-3-yl)-1,3-dioxo-2,3-dihydro-1H-isoindol-4-yl]amino}-3,6,9,12-tetraoxatetradecan-1-yl)-6-methyl-9-[4-(trifluoro-methyl)phenyl]-9H-carbazole-3-carboxamide], the half-maximal degradation concentration (DC50) on TEAD1 in SK-HEP1 cells (setting [1]) and on TEAD1 in NCI-H226 cells (setting [2]) was 0.1 to 1 µM throughout.
For the compound `Cn1cc2c3cc(C(=O)NCCOCCOCCOCCOCCOc4ccc5c(c4)C(=O)N(C4CCC(=O)NC4=O)C5=O)ccc3n(-c3ccc(C(F)(F)F)cc3)c2n1` (centres unmarked) [Compound 88, N-(14-{[2-(2,6-dioxopiperidin-3-yl)-1,3-dioxo-2,3-dihydro-1H-isoindol-5-yl]oxy}-3,6,9,12-tetraoxatetradecan-1-yl)-2-methyl-8-[4-(trifluoromethyl)phenyl]-2H,8H-pyrazolo[3,4-b]indole-5-carboxamide], the half-maximal degradation concentration (DC50) on TEAD1 in SK-HEP1 cells (setting [1]) and on TEAD1 in NCI-H226 cells (setting [2]) was 0.1 to 1 µM throughout.
`Cc1ncsc1-c1ccc(CNC(=O)[C@@H]2C[C@@H](O)CN2C(=O)[C@@H](NC(=O)CCCCCCCCCOCCOCCNC(=O)c2ccc3c(c2)c2cn(C)nc2n3-c2ccc(C(F)(F)F)cc2)C(C)(C)C)cc1` [Compound 56]: the 50% degradation concentration (DC50) at TEAD1 in SK-HEP1 cells (setting [1]) and on TEAD1 in NCI-H226 cells (setting [2]) was 0.1 to 1 µM in each case.
Take `Cc1ncsc1-c1ccc(CNC(=O)[C@@H]2C[C@@H](O)CN2C(=O)[C@@H](NC(=O)CCCCCCOCCOCCOCCNC(=O)c2ccc3c(c2)c2cn(C)nc2n3-c2ccc(C(F)(F)F)cc2)C(C)(C)C)cc1` [Compound 60, (2S,4R)-1-[(2S)-3,3-dimethyl-2-[7-(2-{2-[2-({2-methyl-8-[4-(trifluoro-methyl)phenyl]-2H,8H-pyrazolo[3,4-b]indol-5-yl}formamido)ethoxy]-ethoxy}ethoxy)heptanamido]butanoyl]-4-hydroxy-N-{[4-(4-methyl-1,3-thiazol-5-yl)phenyl]methyl}pyrrolidine-2-carboxamide]: the 50% degradation concentration (DC50) at TEAD1 in SK-HEP1 cells (setting [1]) and on TEAD1 in NCI-H226 cells (setting [2]) was 0.1 to 1 µM each time.
`Cc1ncsc1-c1ccc(CNC(=O)[C@@H]2C[C@@H](O)CN2C(=O)[C@@H](NC(=O)COCCCOCCOCCNC(=O)c2ccc3c(c2)c2cn(C)nc2n3-c2ccc(C(F)(F)F)cc2)C(C)(C)C)cc1` [Compound 74, (2S,4R)-1-[(2S)-3,3-dimethyl-2-[2-(3-{2-[2-({2-methyl-8-[4-(trifluoro-methyl)phenyl]-2H,8H-pyrazolo[3,4-b]indol-5-yl}formamido)ethoxy]-ethoxy}propoxy)acetamido]butanoyl]-4-hydroxy-N-{[4-(4-methyl-1,3-thiazol-5-yl)phenyl]methyl}pyrrolidine-2-carboxamide]: the results for the DC50 at TEAD1 in SK-HEP1 cells (setting [1]) and on TEAD1 in NCI-H226 cells (setting [2]) were 0.1 to 1 µM and 1 to 3 µM, respectively.
